Measured values: patent US5262431A, “Prolinal derivatives and pharmaceutical compositions thereof” (Ono Pharmaceutical Co., Ltd., priority 1986, dated 1993)
pIC50: −log10 of the molar value. Peptide text beside a SMILES is read from it. * marks the point of attachment. Cbz = O=C(OCc1ccccc1)*; CH2Cl = ClC*

Tested on: prolyl endopeptidase
Assay: not given
Details: literature; cited from earlier work

In the case of O=C(NCC(=O)N1CCC[C@H]1C(=O)CCl)OCc1ccccc1 [N-benzyloxycarbonyl-glycyl-L-prolyl-chloromethane] (Cbz-Gly-Pro-CH2Cl), the “inhibition of prolyl endopeptidase (in words)” value is listed as “strongly inhibit prolyl endopeptidase”.

Target: T1, prolyl endopeptidase (Bos taurus, UniProt Q9XTA2)
T1 construct: prolyl endopeptidase which was purified from bovine brain; from tissue; host or cells: bovine brain
T1 sequence (Q9XTA2 1-710): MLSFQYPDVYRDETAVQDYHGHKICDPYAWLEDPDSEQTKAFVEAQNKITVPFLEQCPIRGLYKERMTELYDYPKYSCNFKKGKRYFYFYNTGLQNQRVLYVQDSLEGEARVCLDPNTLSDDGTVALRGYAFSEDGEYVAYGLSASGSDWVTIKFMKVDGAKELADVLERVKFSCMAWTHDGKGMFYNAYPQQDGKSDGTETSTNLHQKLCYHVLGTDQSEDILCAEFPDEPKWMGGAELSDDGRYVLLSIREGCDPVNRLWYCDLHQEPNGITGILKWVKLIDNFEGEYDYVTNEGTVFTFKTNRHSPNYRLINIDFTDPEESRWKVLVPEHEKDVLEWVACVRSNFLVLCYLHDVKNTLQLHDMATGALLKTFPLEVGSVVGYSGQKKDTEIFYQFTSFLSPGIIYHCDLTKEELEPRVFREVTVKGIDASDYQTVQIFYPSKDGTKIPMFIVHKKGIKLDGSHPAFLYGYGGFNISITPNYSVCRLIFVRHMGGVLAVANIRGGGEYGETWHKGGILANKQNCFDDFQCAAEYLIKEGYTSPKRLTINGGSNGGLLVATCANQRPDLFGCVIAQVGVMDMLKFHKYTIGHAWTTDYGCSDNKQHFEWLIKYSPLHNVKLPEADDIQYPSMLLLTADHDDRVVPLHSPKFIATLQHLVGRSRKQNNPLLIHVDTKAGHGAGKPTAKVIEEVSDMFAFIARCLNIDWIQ
Assay: Prolyl endopeptidase inhibitory activity in vitro
Type: biochemical, bovine
Details: not given
Protocol: Prolyl Endopeptidase Inhibitory Activity In Vitro
Inhibitory activity of prolyl endopeptidase in vitro was measured by the following test system.
A mixed solution of 20 mM tris-HCl buffer (pH 7.5; 935 μl; containing 10 mM EDTA and 10 mM mercaptoethanol), a solution of a compound of the present invention In DMSO (10 μl) and a solution of prolyl endopeptidase which was purified from bovine brain (0.13 unit; prepared by the method described in J. Biochem., 94, 1179 (1983)) in tris-HCl buffer (15 μl) was preincubated for 15 mins at 37° C.
To the solution, 5 mM of N-benzyloxycarbonyl-glycyl-prolyl-p-nitroanilide (40 μl) in a mixture of 40% dioxane-60% water was added. The solution was incubated for 1 min at the same temperature.
Optical absorption (a1) at 405 nm of the solution, and optical absorption (a2) at 405 nm of the solution after more 30 mins' incubation at 37° C. were measured.
Optical absorptions (b1 and b2) of the solutions using DMSO instead of the solution of the compound of the present invention were also measured.
Inhibitory ratio was calculated by the following expression and IC50 (required concentration for 50% inhibition) was obtained (See Protein, Nucleic acid and Enzyme 25(6), 513, 1980.). [formula]

First: COc1ccc(CCCCCC(C(=O)N2CCC[C@H]2C=O)C(C)C)cc1 (some centres unmarked)
Second: CC(C)C(CCCCCc1ccccc1)C(=O)N1CCC[C@H]1C=O (stereo partly drawn) [1(b), N-(2-isopropyl-7-phenyl-heptanoyl)-L-prolinal]
The pIC50 of the first is 0.33 log units lower: 6.77 for the first, 7.10 for the second.

Going from O=C[C@@H]1CCCN1C(=O)[C@@H]1CCC[C@H]1CCCCc1ccccc1 (relative stereo) [Example 2, N-[DL-Trans-2-(4-Phenylbutyl)Cyclopentanecarbonyl] -L-prolinal] to CC(C)C(CCCCc1ccccc1)C(=O)N1CCC[C@H]1C=O (stereo partly drawn) [Example 1, N-(2-Isopropyl-6-Phenylhexanoyl)-L-Prolinal], the pIC50 falls from 6.89 to 6.55 (0.34 log units). The first is the more potent here.

Going from CC(C)C(CCCc1ccccc1)C(=O)N1CCC[C@H]1C=O (stereo partly drawn) [1(a), N-(2-isopropyl-5-phenyl-pentanoyl)-L-prolinal] to CC(C)C(CCc1ccccc1)C(=O)N1CCC[C@H]1C=O (stereo partly drawn) [N-(2-isopropyl-4-phenyl-butyryl)-L-prolinal, reference compound], the pIC50 falls from 6.43 to under 5.30. The first is the more potent here.

CC(C)C(CCCCCCc1ccccc1)C(=O)N1CCC[C@H]1C=O (stereo partly drawn) [1(c), N-(2-isopropyl-8-phenyl-octanoyl)-L-prolinal] and CC(C)C(CCCCCCCc1ccccc1)C(=O)N1CCC[C@H]1C=O (stereo partly drawn) [1(d), N-(2-isopropyl-9-phenyl-nonanoyl)-L-prolinal] are within 0.2 log units of each other in pIC50: 6.72 for the first, 6.64 for the second.

Going from CC(C)C(CCCCCCCCc1ccccc1)C(=O)N1CCC[C@H]1C=O (stereo partly drawn) [1(e), N-(2-isopropyl-10-phenyldecanoyl)-L-prolinal] to COc1ccc(CCCC(=O)N2CCC[C@H]2C=O)cc1 [N-[4-(4-methoxyphenyl)bu-tyryl]-L-prolinal, reference compound], the pIC50 falls from 6.92 to 4.68 (2.24 log units). The first is the more potent here.

Same assay, conditions: Table I, formula (Ia); purified from bovine brain; pH 7.5, 37° C.; read-out: Concentration for 50% inhibition IC50

Compound “N-[9-(4-phenylbutyl)cyclo-hexane carbonyl]-L-prolinal [2(a)]” has a pIC50 of 6.37.

Same assay, conditions: read-out: Concentration for 50% inhibition IC50; Table II, formula (Ib); purified from bovine brain; pH 7.5, 37° C.

O=C[C@@H]1CCCN1C(=O)C(CCCCCc1ccccc1)c1ccccc1 (some centres unmarked) and O=C[C@@H]1CCCN1C(=O)C(CCCCc1ccccc1)C1CCCCC1 (some centres unmarked) are within 0.2 log units of each other in pIC50: 6.21 for the first, 6.16 for the second.
